Experimental data as given in patent US20250057963A1, “DISCOVERY OF PIPERLONGUMINE AS A NOVEL E3 LIGASE LIGAND” (University of Florida Research Foundation, Incorporated, priority 2021, published 2025).
Entries after “also recorded” stand apart in the source; their conditions may differ.

Legend:
CDK9 [1] = molecular target: T1, CDK9 (Homo sapiens, UniProt P50750); test: CDK9 degradation in MOLT4 cells (immunoblot); type: cell-based; parameters: endogenous in cells; host or cells: MOLT4, 293T, K562, NCI-H1299, LNCaP; details: 6 h treatment
Description: All the cell lines were maintained in a humidified incubator at 37° C. and 5% CO2.
Data analysis was performed using GraphPad Prism software (version 9) unless indicated otherwise. All graphs presented represent the mean±standard deviation of the mean (SD) unless otherwise stated.
Target sequence in this assay (P50750 whole entry): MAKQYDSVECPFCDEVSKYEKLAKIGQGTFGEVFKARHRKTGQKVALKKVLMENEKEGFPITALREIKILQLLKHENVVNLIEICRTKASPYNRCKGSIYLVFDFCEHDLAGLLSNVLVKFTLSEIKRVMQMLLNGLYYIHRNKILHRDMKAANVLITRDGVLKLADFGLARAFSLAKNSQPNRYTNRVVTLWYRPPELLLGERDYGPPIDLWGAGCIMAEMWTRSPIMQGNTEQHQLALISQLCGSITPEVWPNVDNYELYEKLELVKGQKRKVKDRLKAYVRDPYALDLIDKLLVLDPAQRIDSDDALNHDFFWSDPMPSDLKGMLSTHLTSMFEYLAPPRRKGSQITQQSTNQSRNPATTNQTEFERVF

CDK9 [2] = molecular target: T1, CDK9; test: TMT-based global proteomics in MOLT4 cells; type: cell-based; parameters: endogenous in cells; host or cells: MOLT4; details: 0.1 μM 955 for 1 h and 6 h, 1 μM SNS-032 for 6 h
Description: Sample Preparation and LC-MS/MS analysis. Total protein from cell pellets was reduced, alkylated, and purified by chloroform/methanol extraction prior to digestion with sequencing grade modified porcine trypsin (Cat. No. V5111, Promega). Tryptic peptides were labeled using tandem mass tag isobaric labeling reagents (Cat. No. A34808, ThermoFisher) following the manufacturer's instructions and combined into one 11-plex sample group. The labeled peptide multiplex was separated into 46 fractions on a 100×1.0 mm Acquity BEH C18 column (Waters) using an UltiMate 3000 UHPLC system (Thermo) with a 50 min gradient from 99:1 to 60:40 bufferA:B (Buffer A: 0.1% formic acid, 0.5% acetonitrile; Buffer B: 0.1% formic acid, 99.9% acetonitrile. Both buffers adjusted to pH 10 with ammonium hydroxide for offline separation) ratio under basic pH conditions, and then consolidated into 18 super-fractions. […]
Data processing and analysis. Proteins were identified and MS3 reporter ions quantified using MaxQuant (version 2.0.3.0; Max Planck Institute) against the Homo sapiens UniprotKB database (March 2021) with a parent ion tolerance of 3 ppm, a fragment ion tolerance of 0.5 Da, and a reporter ion tolerance of 0.003 Da. Scaffold Q+S (Proteome Software) was used to verify MS/MS based peptide and protein identifications (protein identifications were accepted if they could be established with less than 1.0% false discovery and contained at least 2 identified peptides; protein probabilities were assigned by the Protein Prophet algorithm (Nesvizhskii et al., 2003) and to perform reporter ion-based statistical analysis. Protein TMT MS3 reporter ion intensity values were assessed for quality using ProteiNorm for a systematic evaluation of normalization methods (Graw et al., 2020). Cyclic loess normalization (Ritchie et al., 2015) was utilized since it had the highest intragroup correlation and the lowest variance amongst the samples. […]
Target sequence in this assay (P50750 whole entry): as above

CDK10 = molecular target: T2, CDK10 (Homo sapiens, UniProt Q15131); details: b290: Kinativ screening in MOLT4 lysates (Olson et al., 2018); cited from earlier work
T2 construct: endogenous in cells; host or cells: MOLT4

CDK9 [3] = molecular target: T1, CDK9; details: Table 1; b281 prints these figures as IC50; cited from earlier work
Target sequence in this assay (P50750 whole entry, species assumed): as the sequence (P50750 whole entry) above
Target sequence in this assay (O60563 whole entry partner, species assumed): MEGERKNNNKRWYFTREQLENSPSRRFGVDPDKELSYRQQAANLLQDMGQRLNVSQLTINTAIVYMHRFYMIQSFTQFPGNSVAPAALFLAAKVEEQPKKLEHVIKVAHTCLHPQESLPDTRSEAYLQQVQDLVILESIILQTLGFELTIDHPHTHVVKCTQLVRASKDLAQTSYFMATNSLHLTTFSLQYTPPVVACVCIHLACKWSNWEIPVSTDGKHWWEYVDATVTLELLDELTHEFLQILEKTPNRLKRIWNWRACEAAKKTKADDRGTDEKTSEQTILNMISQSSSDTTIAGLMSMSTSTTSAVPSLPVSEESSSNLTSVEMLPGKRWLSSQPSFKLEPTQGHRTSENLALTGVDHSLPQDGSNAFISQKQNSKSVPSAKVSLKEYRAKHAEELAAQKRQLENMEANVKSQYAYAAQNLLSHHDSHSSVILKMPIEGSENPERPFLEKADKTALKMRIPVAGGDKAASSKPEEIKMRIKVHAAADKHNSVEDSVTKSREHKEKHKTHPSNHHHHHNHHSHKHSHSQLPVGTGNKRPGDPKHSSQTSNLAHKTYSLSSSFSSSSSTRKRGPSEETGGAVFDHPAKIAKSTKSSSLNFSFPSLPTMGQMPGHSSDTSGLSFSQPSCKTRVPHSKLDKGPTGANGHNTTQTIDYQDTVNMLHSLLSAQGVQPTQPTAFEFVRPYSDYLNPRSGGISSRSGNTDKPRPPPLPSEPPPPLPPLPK

[4] = system: LNCaP prostate cancer cells and H1299 lung cancer cells; test: Cell killing (MTS) with or without KEAP1 siRNA knockdown; type: cell-based, Human; details: KEAP1 siRNA vs control siRNA 48 h; compound 0.1 mM (LNCaP) or 0.3 mM (H1299) for 24 h
Description: FIGS. 19A to 19B show percentages of cell killing in LNCaP (FIG. 19A) and H1299 (FIG. 19B) cells with or without KEAP1 knockdown. LNCaP and H1299 cells were treated with control siRNA or siRNAs targeting KEAP1 for 48 h and then reseeded and treated with indicated compound (0.1 mM for LNCaP cells and 0.3 mM for H1299 cells) for 24 h. The cell viability was then determined by MTS assay. The data are presented as mean±SD from three replicate cell cultures in a representative experiment. Data are representative of two independent experiments. Statistical significance was calculated with unpaired two-tailed Student's t-tests. **P<0.01; ***P<0.001; NS: not significant.
Viability (MTS) assays in various cancer cells followed the methods described in our previous report (Khan et al., 2019). The data were expressed as average % cell viability and fitted in non-linear regression curves using GraphPad Prism 9 (GraphPad Software, La Jolla, CA, USA).

[5] = system: LNCaP, 22RV1, PC3 and DU145 prostate cancer cell lines; test: Viability (MTS) assay in prostate cancer cell lines; type: cell-based, Human; details: Homo sapiens, 72 h, read-out: EC50, anti-proliferation
Description: All the cell lines were maintained in a humidified incubator at 37° C. and 5% CO2. […] The data were expressed as average % cell viability and fitted in non-linear regression curves using GraphPad Prism 9 (GraphPad Software, La Jolla, CA, USA).

CDK9 [6] = molecular target: T1, CDK9; details: Olson et al., 2018; cited from earlier work
Target sequence in this assay (P50750 whole entry, species assumed): as the sequence (P50750 whole entry) above

T2 sequence (Q15131 whole entry): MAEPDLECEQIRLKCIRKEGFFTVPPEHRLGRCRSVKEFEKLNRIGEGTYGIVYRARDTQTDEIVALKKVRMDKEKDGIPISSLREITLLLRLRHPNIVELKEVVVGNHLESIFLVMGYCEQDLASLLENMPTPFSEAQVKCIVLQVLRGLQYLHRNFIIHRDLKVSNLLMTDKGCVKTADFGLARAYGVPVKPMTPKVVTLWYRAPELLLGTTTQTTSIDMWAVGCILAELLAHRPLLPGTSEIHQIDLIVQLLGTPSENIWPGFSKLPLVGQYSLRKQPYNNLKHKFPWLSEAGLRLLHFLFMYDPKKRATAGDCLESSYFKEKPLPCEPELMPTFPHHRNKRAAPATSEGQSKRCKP

Row | CDK9 protein level (global proteome) (CDK9 [2]) | EC50 [5] [nM] | Compound | CDK9 degradation with short-term treatment (CDK9 [1]) | binding of SNS-032 to CDK10 (CDK10) | Binding Affinity, CDK9 (CDK9 [3]) | effect of KEAP1 knockdown on cytotoxicity of the compound [4] | degradation selectivity among SNS-032 targets (CDK9 [6])
1 | no significant effect on CDK9 | > 100 | CC(C)(C)c1cnc(CSc2cnc(NC(=O)C3CCNCC3)s2)o1 [SNS-032, N-(5-(((5-(tert-butyl)oxazol-2-yl)methyl)thio)thiazol-2-yl)piperidine-4-carboxamide, reference compound] | no degradation effect; also recorded: could not | very low binding affinity; also recorded: moderate binding | CDK9: 4 nM | no significant effect | –
2 | – | – | CC(C)(C)c1cnc(CSc2cnc(NC(=O)C3CCN(CC(=O)NCCOCCOCCOCCNc4cccc5c4C(=O)N(C4CCC(=O)NC4=O)C5=O)CC3)s2)o1 (stereo not shown) [THAL-SNS-032] | – | – | – | – | could only degrade CDK9 but not other known SNS-032 targets
